The conditions of series [1]: for Cmax GB: 4.5 mg, pH 2; for AUC / Cmax IB: pH 5.5.
Series [2] can be described thus: in vivo. Particulars: male, Sprague-Dawley, rat, 400 mg/kg. The method, then:
Rats were allowed to eat ad libitum before testing. […] Following drug administration, 200 μl of plasma was collected from each animal at the following time points: 30, 60, 90, 120, 160 and 240 minutes. Plasma samples were snap frozen in liquid N2 and stored at −80° C. until analysis.

For series [3] the following is noted: label / literature; cited from earlier work.
In series [4] the test system is SOD1 mouse model. Particulars: cited from earlier work.
Setting [5] is: SOD1 mouse model, published results (Shin et al. 2012; Lincecum et al. 2010).

Turning to `O=C(O)c1cc(N=Nc2ccc(S(=O)(=O)Nc3ccccn3)cc2)ccc1O` [Amorphous sulfasalazine, sulfasalazine], in series [1], the “Cmax GB” value is 154000 ng/mL, the AUC is reported as 30,300 min * ug/mL and the “Cmax IB” value was determined as 372000 ng/mL.

In series [2], `O=C(O)c1cc(N=Nc2ccc(S(=O)(=O)Nc3ccccn3)cc2)ccc1O` [Crystalline sulfasalazine, sulfasalazine] returned a concentration at 0.5 h of 1490 ng/mL, a concentration at 1 h of 1140 ng/mL, a concentration at 1.5 h of 1430 ng/mL and a concentration at 2 h of 1260 ng/mL. In series [2], this compound yielded a concentration at 3 h of 1030 ng/mL and a concentration at 4 h of 850 ng/mL. In addition, in series [1], the “Cmax GB” value came to 15000 ng/mL, the AUC is 22,200 min * ug/mL and the “Cmax IB” value is 282000 ng/mL.

As to `Nc1ccc(S(=O)(=O)Nc2ccccn2)cc1` [Sulfapyridine, sulfapyridine], the “bioavailability (share reaching the circulation following oral dosing)” value in series [3] is recorded as over 70%.

`CC(C)Cc1ccc(C(C)C(=O)O)cc1` (stereo not shown) [ibuprofen]: in series [4] (setting [5]), the “decreased lifespan after onset of neurological disease” value is 10%.

With `Nc1nc2ccc(OC(F)(F)F)cc2s1` [riluzole], the increased absolute lifespan in series [4] (SOD1 model, Lincecum et al. 2010) is on record as 1.6%. In addition, in series [4] (setting [5]), the “increased lifespan after onset of neurological disease” value was 1%.

These data come from patent US10398713B2, “Compositions and methods for the treatment of neurodegenerative and other diseases” (Glialogix, Inc., priority 2013, dated 2019).
